Patent publication US20230159449A1, “LIPID FORMULATIONS CONTAINING NUCLEIC ACIDS AND METHODS OF TREATMENT FOR CYSTIC FIBROSIS” (Arcturus Therapeutics, Inc., priority 2021, published 2023)

Test system: FRT cells
Experiment: Transepithelial conductance (Gt) in Air-Liquid Interface culture of transfected FRT cells
Type: cell-based, rat
Conditions: FRT cells transfected with 2099.1 or 1835.1; sequential Forskolin, VX770, Inh-172
Protocol: Further studies were conducted to assess the activity of hCFTR proteins expressed by selected mRNA constructs and whether these can properly open and close to allow proper ion transport. In these studies, an Air-Liquid Interface (ALI) cell culture model of FRT cells was used to transfect an unformulated subset of codon-optimized hCFTR mRNAs at different doses ranging from 0.5 μg-2 μg of mRNA (the 2 μg dose is not shown) into the FRT cells. ALI is a method of cell culture by which polarized cells are generated with their basal surfaces in contact with media, and the top of the cellular layer is exposed to the air. This model helps to mimic the cellular structure of in vivo airways. At 24 hours post-transfection, transepithelial conductance (Gt) of the cells over time was measured as an indicator of CFTR activity. Initially, Gt was measured with the transfected or control cells unperturbed. Then, a sequential process of CFTR activation (channel opening), enhancement (gating promotion) and closing of the CFTR channels was performed. The hCFTR constructs used in this study were 1835.1 (SEQ ID NO: 53), 2093.1 (SEQ ID NO: 66), 2095.1 (SEQ ID NO: 68), 2096.1 (SEQ ID NO: 69), and 2099.1 (SEQ ID NO: 72). In addition, controls were performed using a reference sequence of construct 764.1 (SEQ ID NO: 47) and untransfected cells. […]

| SMILES | change in Gt on introduction of the agent |
| --- | --- |
| O=C(O)c1ccc(C=C2SC(=S)N(c3cccc(C(F)(F)F)c3)C2=O)cc1 [Inh-172, reference compound] | decline in Gt |
| CC(C)(C)c1cc(C(C)(C)C)c(NC(=O)c2c[nH]c3ccccc3c2=O)cc1O [VX770, reference compound] | second increase in Gt |
